Data: patent US9156792B2, “Retinamide and uses thereof” (UNIVERSITY OF MARYLAND, BALTIMORE, priority 2008, dated 2015)

test system: PC-3 prostate cancer cells; assay: MTT assay of PC-3 prostate cancer cell growth (proliferation) inhibition; type: cell-based, human; conditions: Homo sapiens, 144 h, PC-3 cells, 6 days of treatment, read-out: GI50 Values (concentrations that cause 50% growth inhibition)
Description: Data are means (SEM<±5%) of at least three independent experiments.
Compounds VNLG/145, VNLG/146, VNLG/147, VNLG/148, VNLG/152 and VNLG/153 were tested and evaluated for their ability to inhibit the growth (proliferation) of PC-3 prostate cancer cells using the MTT [3-(4,5-dimethylthiazol-2-yl)-2,5-diphenyltetrazolium bromide] assay (Gediyal et al. 2005). VN/66-1 of U.S. Pat. No. 7,265,143 was tested side by side for comparison. The GI50 values (concentrations that cause 50% growth inhibition) were determined from dose-response curves. See in FIG. 1 for VNLG/145.
The growth inhibitory experiments with the other compounds gave plots that were similar to FIG. 1.

SMILES	GI50 [µM]
CC1=C(/C=C/C(C)=C/C=C/C(C)=C/C(=O)Nc2ncnc3[nH]cnc23)C(C)(C)CCC1n1ccnc1 (stereo not drawn)	5.62 ± 0.37
CC1=C(/C=C/C(C)=C/C=C/C(C)=C/C(=O)NC(C)(C)C)C(C)(C)CCC1n1ccnc1 (stereo not drawn) [drawing 35]	1.86 ± 0.05
CC1=C(/C=C/C(C)=C/C=C/C(C)=C/C(=O)Nc2cc(C(F)(F)F)ccc2C(F)(F)F)C(C)(C)CCC1n1ccnc1 (stereo not drawn)	14.1 ± 7.12
CC1=C(/C=C/C(C)=C/C=C/C(C)=C/C(=O)Nc2ccc(F)cc2)C(C)(C)CCC1n1ccnc1 (stereo not drawn) [drawing 39]	0.61 ± 0.11
CC1=C(/C=C/C(C)=C/C=C/C(C)=C/C(=O)Nc2ccccc2O)C(C)(C)CCC1n1ccnc1 (stereo not drawn) [drawing 37]	1.7 ± 0.07
CC1=C(/C=C/C(C)=C/C=C/C(C)=C/C(=O)Nc2ccccc2)C(C)(C)CCC1n1ccnc1 (stereo not drawn) [drawing 40]	1.17 ± 0.05
CC1=C(/C=C/C(C)=C/C=C/C(C)=C/C(=O)Nc2ccc(O)cc2)C(C)(C)CCC1n1ccnc1 (stereo not drawn)	1.7 ± 0.05

same assay, conditions: PC-3 cells, side by side with VN/66-1

SMILES	potency (growth inhibition) compared with VN/66-1
CC1=C(/C=C/C(C)=C/C=C/C(C)=C/C(=O)Nc2ccccc2)C(C)(C)CCC1n1ccnc1 (stereo not drawn) [VNLG/153]	potencies better than VN/66-1
CC1=C(/C=C/C(C)=C/C=C/C(C)=C/C(=O)Nc2ccccc2O)C(C)(C)CCC1n1ccnc1 (stereo not drawn) [VNLG/147]	potencies similar to VN/66-1
CC1=C(/C=C/C(C)=C/C=C/C(C)=C/C(=O)NC(C)(C)C)C(C)(C)CCC1n1ccnc1 (stereo not drawn) [VNLG/145]	potencies similar to VN/66-1
CC1=C(/C=C/C(C)=C/C=C/C(C)=C/C(=O)Nc2ccc(F)cc2)C(C)(C)CCC1n1ccnc1 (stereo not drawn) [VNLG/152]	potencies better than VN/66-1

test system: RARα,β,γ receptors; assay: not given; conditions: compared with ATRA; cited from earlier work

SMILES	binding and activation of RARα,β,γ receptors
CC1=C(/C=C/C(C)=C/C=C/C(C)=C/C(=O)O)C(C)(C)CCC1n1ccnc1 (stereo not drawn) [VN/14-1]	binds and activates the RARα,β,γ receptors, albeit it is significantly less potent than ATRA
